The subject of this series is CCRIS mutagenicity, Ames/micronucleus/aberration tests. In words: CCRIS mutagenicity studies.
Setting [1] is: Test System: AMES SALMONELLA TYPHIMURIUM, Strain/Indicator: TA98, Metabolic Activation: NONE, Method: STANDARD PLATE.
Setting [2] is: Test System: AMES SALMONELLA TYPHIMURIUM, Strain/Indicator: TA98, Metabolic Activation: RAT, LIVER, S-9, AROCLOR 1254, Method: STANDARD PLATE.
Setting [3] is: Test System: AMES SALMONELLA TYPHIMURIUM, Strain/Indicator: TA100, Metabolic Activation: NONE, Method: STANDARD PLATE.
Setting [4] is: Test System: AMES SALMONELLA TYPHIMURIUM, Strain/Indicator: TA100, Metabolic Activation: RAT, LIVER, S-9, AROCLOR 1254, Method: STANDARD PLATE.

Calls of active or inactive are those of the source. How the calls were made is not given here.

For the molecule `CCOCCO`, the mutagenic call was “inactive; negative” (End Point: IN VITRO CHROMOSOMAL ABERRATIONS, Test System: CHINESE HAMSTER OVARY CELLS, Metabolic Activation: RAT, LIVER, S-9, AROCLOR 1254); “inactive; negative” (Test System: AMES SALMONELLA TYPHIMURIUM, Strain/Indicator: TA97A, Metabolic Activation: NONE, Method: STANDARD PLATE); “inactive; negative” (Test System: AMES SALMONELLA TYPHIMURIUM, Strain/Indicator: TA97A, Metabolic Activation: RAT, LIVER, S-9, AROCLOR 1254, Method: STANDARD PLATE); “inactive; negative” (Test System: AMES SALMONELLA TYPHIMURIUM, Strain/Indicator: TA98, Metabolic Activation: HAMSTER, LIVER, S-9, AROCLOR 1254 (10%), Method: PREINCUBATION); “inactive; negative” (Test System: AMES SALMONELLA TYPHIMURIUM, Strain/Indicator: TA98, Metabolic Activation: NONE, Method: PREINCUBATION); “inactive; negative” under setting [1]. Also, the mutagenic call was “inactive; negative” (Test System: AMES SALMONELLA TYPHIMURIUM, Strain/Indicator: TA98, Metabolic Activation: RAT, LIVER, S-9, AROCLOR 1254 (10%), Method: PREINCUBATION); “inactive; negative” under setting [2]; “inactive; negative” (Test System: AMES SALMONELLA TYPHIMURIUM, Strain/Indicator: TA98, Metabolic Activation: RAT, LIVER, S-9, KC 500, Method: PREINCUBATION); “inactive; negative” (Test System: AMES SALMONELLA TYPHIMURIUM, Strain/Indicator: TA100, Metabolic Activation: HAMSTER, LIVER, S-9, AROCLOR 1254 (10%), Method: PREINCUBATION); “inactive; negative” (Test System: AMES SALMONELLA TYPHIMURIUM, Strain/Indicator: TA100, Metabolic Activation: NONE, Method: PREINCUBATION); “inactive; negative” under setting [3]. Besides, the mutagenic call runs as follows: (Test System: AMES SALMONELLA TYPHIMURIUM, Strain/Indicator: TA100, Metabolic Activation: RAT, LIVER, S-9, AROCLOR 1254 (10%), Method: PREINCUBATION) “inactive; negative”; under setting [4], “inactive; negative”; (Test System: AMES SALMONELLA TYPHIMURIUM, Strain/Indicator: TA100, Metabolic Activation: RAT, LIVER, S-9, KC 500, Method: PREINCUBATION) “inactive; negative”; (Test System: AMES SALMONELLA TYPHIMURIUM, Strain/Indicator: TA102, Metabolic Activation: NONE, Method: STANDARD PLATE) “inactive; negative”; (Test System: AMES SALMONELLA TYPHIMURIUM, Strain/Indicator: TA102, Metabolic Activation: RAT, LIVER, S-9, AROCLOR 1254, Method: STANDARD PLATE) “inactive; negative”; (Test System: AMES SALMONELLA TYPHIMURIUM, Strain/Indicator: TA1535, Metabolic Activation: HAMSTER, LIVER, S-9, AROCLOR 1254 (10%), Method: PREINCUBATION) “inactive; negative”. The mutagenic call by setting is: (Test System: AMES SALMONELLA TYPHIMURIUM, Strain/Indicator: TA1535, Metabolic Activation: NONE, Method: PREINCUBATION) “inactive; negative”; (Test System: AMES SALMONELLA TYPHIMURIUM, Strain/Indicator: TA1535, Metabolic Activation: RAT, LIVER, S-9, AROCLOR 1254 (10%), Method: PREINCUBATION) “inactive; negative”; (Test System: AMES SALMONELLA TYPHIMURIUM, Strain/Indicator: TA1535, Metabolic Activation: RAT, LIVER, S-9, KC 500, Method: PREINCUBATION) “inactive; negative”; (Test System: AMES SALMONELLA TYPHIMURIUM, Strain/Indicator: TA1537, Metabolic Activation: HAMSTER, LIVER, S-9, AROCLOR 1254 (10%), Method: PREINCUBATION) “inactive; negative”; (Test System: AMES SALMONELLA TYPHIMURIUM, Strain/Indicator: TA1537, Metabolic Activation: NONE, Method: PREINCUBATION) “inactive; negative”; (Test System: AMES SALMONELLA TYPHIMURIUM, Strain/Indicator: TA1537, Metabolic Activation: RAT, LIVER, S-9, AROCLOR 1254 (10%), Method: PREINCUBATION) “inactive; negative”. In addition, the mutagenic call (Test System: AMES SALMONELLA TYPHIMURIUM, Strain/Indicator: TA1537, Metabolic Activation: RAT, LIVER, S-9, KC 500, Method: PREINCUBATION) was “inactive; negative”; the mutagenic call (Test System: AMES SALMONELLA TYPHIMURIUM, Strain/Indicator: TA1538, Metabolic Activation: NONE, Method: PREINCUBATION) is “inactive; negative”; the mutagenic call (Test System: AMES SALMONELLA TYPHIMURIUM, Strain/Indicator: TA1538, Metabolic Activation: RAT, LIVER, S-9, KC 500, Method: PREINCUBATION) was “inactive; negative”; the mutagenic call (Test System: E. COLI, Strain/Indicator: WP2 UVRA, Metabolic Activation: NONE, Method: PREINCUBATION) was “inactive; negative”; the mutagenic call (Test System: E. COLI, Strain/Indicator: WP2 UVRA, Metabolic Activation: RAT, LIVER, S-9, KC 500, Method: PREINCUBATION) is “inactive; negative”.

Take `C#C[C@]1(O)CC[C@H]2[C@@H]3CCC4=C(CCC(=O)C4)[C@H]3CC[C@@]21C`: the mutagenic call (End Point: IN VITRO CHROMOSOMAL ABERRATIONS, Test System: HUMAN PERIPHERAL LYMPHOCYTES, Metabolic Activation: NONE) was “inactive; negative”; the mutagenic call (End Point: IN VITRO CHROMOSOMAL ABERRATIONS, Test System: HUMAN PERIPHERAL LYMPHOCYTES, Metabolic Activation: RAT, LIVER, S-9, PHENOBARBITONE) was “active; positive (structural changes)”; the mutagenic call (Test System: AMES SALMONELLA TYPHIMURIUM, Strain/Indicator: TA98, Metabolic Activation: MOUSE, LIVER, S-9, Method: STANDARD PLATE) is “inactive; negative”; the mutagenic call under setting [1] is “inactive; negative”; the mutagenic call under setting [2] is “inactive; negative”; the mutagenic call (Test System: AMES SALMONELLA TYPHIMURIUM, Strain/Indicator: TA100, Metabolic Activation: MOUSE, LIVER, S-9, Method: STANDARD PLATE) is “inactive; negative”. The mutagenic call under setting [3] was “inactive; negative”; the mutagenic call under setting [4] was “inactive; negative”; the mutagenic call (Test System: AMES SALMONELLA TYPHIMURIUM, Strain/Indicator: TA1535, Metabolic Activation: MOUSE, LIVER, S-9, Method: STANDARD PLATE) is “inactive; negative”; the mutagenic call (Test System: AMES SALMONELLA TYPHIMURIUM, Strain/Indicator: TA1535, Metabolic Activation: NONE, Method: STANDARD PLATE) was “inactive; negative”; the mutagenic call (Test System: AMES SALMONELLA TYPHIMURIUM, Strain/Indicator: TA1535, Metabolic Activation: RAT, LIVER, S-9, AROCLOR 1254, Method: STANDARD PLATE) was “inactive; negative”; the mutagenic call (Test System: AMES SALMONELLA TYPHIMURIUM, Strain/Indicator: TA1537, Metabolic Activation: MOUSE, LIVER, S-9, Method: STANDARD PLATE) is “inactive; negative”. In addition, the mutagenic call reads like this: (Test System: AMES SALMONELLA TYPHIMURIUM, Strain/Indicator: TA1537, Metabolic Activation: NONE, Method: STANDARD PLATE) “inactive; negative”; (Test System: AMES SALMONELLA TYPHIMURIUM, Strain/Indicator: TA1537, Metabolic Activation: RAT, LIVER, S-9, AROCLOR 1254, Method: STANDARD PLATE) “inactive; negative”; (Test System: AMES SALMONELLA TYPHIMURIUM, Strain/Indicator: TA1538, Metabolic Activation: MOUSE, LIVER, S-9, Method: STANDARD PLATE) “inactive; negative”; (Test System: AMES SALMONELLA TYPHIMURIUM, Strain/Indicator: TA1538, Metabolic Activation: NONE, Method: STANDARD PLATE) “inactive; negative”; (Test System: AMES SALMONELLA TYPHIMURIUM, Strain/Indicator: TA1538, Metabolic Activation: RAT, LIVER, S-9, AROCLOR 1254, Method: STANDARD PLATE) “inactive; negative”.

These data come from PubChem BioAssay AID1259407 (Chemical Carcinogenesis Research Information System (CCRIS), 2018).
